Laboratory results from patent US20060194845A1, “Use of ALK 5 inhibitors to modulate or inhibit myostatin activity leading to increased lean tissue accretion in animals” (Schering Corporation, priority 2004, published 2006).

Test system: rats
Experiment: Effect of Compound A on lean and fat tissue content in rats (Molecular Resonance Imaging)
Type: in vivo, rat
Settings: 10 mg/kg in feed
Description: Ten animals were treated with Compound A and a second group of ten animals served as a control group. Baseline values, in grams, of lean and fat tissue were assessed using […] Resonance Imaging technology for all animals.

Which results are given for `NC(=O)c1ccc(-c2nc(-c3ccc4c(c3)OCO4)c(-c3ccccn3)[nH]2)cc1` [Compound A]?
fat content vs control (observation in words): slight trend towards decreased fat content; Fat (g) Δ (change in grams of tissue from baseline) (21 days): 50.6 g; Lean (g) Δ (change in grams of tissue from baseline) (21 days): 93.7 g; Fat (g) Δ (change in grams of tissue from baseline) (39 days): 73.6 g; increase in lean tissue compared to the control group (39 days, 137.8 vs. 115.3, p<0.0036): 19.6%; Lean (g) Δ (change in grams of tissue from baseline) (39 days, p<0.0036 vs control, 10 mg/kg): 137.8 g
